Experimental data from US20240308988A1, “Method For Controlling Diamide Resistant Pests and Compounds Therefor” (priority 2021, published 2024).

Key:
[1] = tested on: Plutella xylostella (Diamond back moth) ryanodine receptor, containing the G4946E resistance mutation; assay: In vitro calcium fluorescence assay (Fluo-8 NW, FDSS) in human embryonic kidney cells expressing the ryanodine receptor; type: cell-based; details: table; EC50 (compound)/EC50 (cyantraniliprole); G4946E RyR in HEK cells
Summary of the method: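 Fluo-8 NW-loaded cells, compounds at 10 rates, intracellular calcium fluorescence read on FDSS. EC50 from dose-response curves, normalized to in-assay cyantraniliprole as REC50 = EC50(compound)/EC50(cyantraniliprole).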

Row | Structure (SMILES) | REC50 (Compound of the invention) [1] | melting point [°C]
1 | COc1cc(C(=O)Nc2c(Cl)cc(Cl)cc2C(N)=O)n(-c2ncccc2Cl)n1 [Compound P59, N-(2-carbamoyl-4,6-dichloro-phenyl)-2-(3-chloro-2-pyridyl)-5-methoxy-pyrazole-3-carboxamide] | 0.62 | 155 to 160
2 | CCc1cc(C(=O)Nc2c(C)cc(Cl)cc2C(N)=O)n(-c2ncccc2Cl)n1 [Compound P75, N-(2-carbamoyl-4-chloro-6-methyl-phenyl)-2-(3-chloro-2-pyridyl)-5-ethyl-pyrazole-3-carboxamide] | 0.69 | 245 to 250
